According to paper PMC10167629, “Computer-aided design of a cyclic di-AMP synthesizing enzyme CdaA inhibitor” (microLife, 2023):

Assays:
[1] = target: T1, Lm CdaA (∆100CdaA) (Listeria monocytogenes, UniProt Q8Y5E4); assay: crystal structure by soaking; format: binding; details: active site, chain A
T1 construct: gene dacA; DAC domain, lacks transmembrane domain and linker (first 100 residues deleted); N-terminal GST tag cut with PreScission protease; plasmid pGEXpBP33, E. coli BL21(DE3); residues to at least 268 mentioned (96-104 and 256-268 disordered); non-catalytic back-to-back dimer in crystal
T1 sequence (Q8Y5E4 101-273): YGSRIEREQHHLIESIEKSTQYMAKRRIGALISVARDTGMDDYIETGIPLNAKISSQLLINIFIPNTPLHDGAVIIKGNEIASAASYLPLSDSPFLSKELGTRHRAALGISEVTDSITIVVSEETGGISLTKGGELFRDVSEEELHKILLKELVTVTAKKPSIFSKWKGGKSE

[2] = target: T1, Lm CdaA (∆100CdaA); assay: ITC, […] binding model

## Nc1ncnc2c1ncn2[C@@H]1O[C@H](CO)[C@@H](O)[C@H]1O [adenosine]
[1]
  crystal structure by soaking: we have determined crystal structures of CdaA complexes with adenine (Fig. 3B), adenosine (Fig. 3C)

## CC(=O)Nc1nc(C)c(-c2csc(N)n2)s1 [compound 7]
[2]
  Kd: 16.3 ± 2.5 µM
